# Experimental data taken from publication PMC6970549, “Orai1 Channel Inhibition Preserves Left Ventricular Systolic Function and Normal Ca^2+ Handling After Pressure Overload” (Circulation, 2020).
# Target: Orai1 (Homo sapiens, UniProt Q96D31)
# Experiment: patch-clamp electrophysiology in Orai1-transfected HEK293 cells
# Assay type: cell-based
# Text: patch-clamp electrophysiology in Orai1-transfected HEK293 cells on Orai1 | Electrophysiological recordings in Orai1-transfected HEK293 cells also confirmed that JPIII is a potent Orai1 inhibitor with an IC50 of […]
# Sequence of Orai1 (Q96D31 whole entry): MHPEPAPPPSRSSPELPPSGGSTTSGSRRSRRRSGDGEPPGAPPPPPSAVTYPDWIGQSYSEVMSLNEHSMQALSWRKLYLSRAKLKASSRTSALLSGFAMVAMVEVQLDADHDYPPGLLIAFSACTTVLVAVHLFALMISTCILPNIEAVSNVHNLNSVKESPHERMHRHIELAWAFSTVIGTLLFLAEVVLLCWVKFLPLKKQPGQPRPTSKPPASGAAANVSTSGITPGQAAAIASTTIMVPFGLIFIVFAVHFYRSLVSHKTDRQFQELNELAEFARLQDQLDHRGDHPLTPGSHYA
compound,measurement,value
"COc1ccc(OC)c(-c2ccc(NCc3ccncc3)cc2)c1 [JPIII, 4-(2,5-dimethoxyphenyl)-N-[(pyridin-4-yl)methyl]aniline]",IC50,244 ± 39 nM
